Experimental data reported in patent US6800418B2, “Fluorine-containing photosensitive polymer having hydrate structure and resist composition comprising the same” (Samsung Electronics, priority 2001, dated 2004).

Test: Measurement of pKa Value
Type: physicochemical
Conditions: pKa value of monomers, measured to identify whether the structure is dissolvable in developers
Procedure: To determine whether a repeating monomer unit of a polymer according to the present invention has a structure dissolvable in common developers, pKa value was measured.
The pKa value was measured for a variety of monomers having different structures to identify whether hydrate is dissolvable in developers.

Row | Structure (SMILES) | pKa
1 | C=Cc1ccc(O)cc1 [MONOMER 2, vinylphenol] | 9.97
2 | C=C(C)C(=O)O [MONOMER 3] | 4.58
3 | C=Cc1ccc(C(O)(C(F)(F)F)C(F)(F)F)cc1 [MONOMER 5] | 8.96

Results, then the molecule that gave them:

Row | pKa | Structure (SMILES)
4 | 9.67 | OC(CC1CC2C=CC1C2)(C(F)(F)F)C(F)(F)F (centres unmarked) [MONOMER 4]
5 | 8.33 | OC(C1CC2C=CC1C2)C(F)(F)C(O)(O)C(F)(F)F (centres unmarked) [MONOMER 6]
